PMC10108821, “Three tyrosine kinase inhibitors cause cardiotoxicity by inducing endoplasmic reticulum stress and inflammation in cardiomyocytes” (BMC Medicine, 2023)

Assays:
Cor.4U hiPSC-CMs [1] = assay: ATP level (CellTiter-Glo) in hiPSC-CMs; format: cell-based, human
Procedure: ATP content was measured using the CellTiter-Glo Luminescent Cell Viability Assay (Promega) following the manufacturer’s protocol. After adding CellTiter-Glo reagents and incubation, luminescence was quantified using a Synergy H1 plate reader (BioTek Instruments). ATP standards were prepared from 0.01 to 5 μM. For each drug, we fitted a four-parameter log-logistic model to calculate ED50 at day 5 (Fig S1). To rank the cellular toxicity of the eight TKIs (Fig 1T), we calculated (EC50-Cmax)/(EC50+Cmax) and arranged from the smallest to the biggest for increasing cellular toxicity.

HELP hiPSC-CMs = assay: CardioExcyte 96 microelectrode array: base impedance and extracellular field potential; format: cell-based, human; details: fixed doses: 10 µM, crizotinib and ponatinib 3.16 µM; up to 24 h
Procedure: HELP hiPSC-CMs were seeded evenly into the 96-well microelectrode array, NSP-96 0.6mm sensor plate (Nanion technologies), at 50,000 cells per well. Measurements were started after 3-5 days of culture of these cells and until the impedance and the extracellular field potential are stable. Measurements were taken a few times before drug addition, and every 30~60 minutes after the drugs were added at 2x concentration. Values were averaged from 3 wells per group. Beat rate, amplitude of impedance, base impedance and FPDc were calculated by the Cardio Excyte Control 96 software package (Nanion Technologies).

NRCMs [2] = assay: Seahorse assay: oxygen consumption and extracellular acidification; format: cell-based, rat; details: 24 h; fixed doses: 10 µM, crizotinib and ponatinib 3.16 µM
Procedure: (§1) Rats were euthanized by decapitation and thoracic cavity was opened with scissors and hearts were popped out of the opening gently with fingers. Hearts were clipped and put in HBSS immediately; 20–40 hearts were collected into one sterile vial containing a magnetic stir bar and 1 mL digestive media made of 0.1% trypsin (Macklin) and 0.05% collagenase (Gibco) in HBSS. Hearts were minced until they were uniform in size. Digestive media was added to 10 mL for 40 hearts and stirred gently for 6 min. Supernatant was discarded and the digestion was repeated once; 10 mL digestive media was added and stirred gently for 10 min. The supernatant with cells were collected and the digestion and collection were repeated 4 times. Cells were centrifuged at 1200 rpm for 5 min, resuspended in media (Dulbecco’s modified Eagleʼs medium (Gibco)) with 10% fetal bovine serum (FBS; VISTECH), 1% penicillin–streptomycin, and 1% 0.1 M 5-bromo-2-deoxyuridine solution (Shanghai Yuanye) and filtered through a 40-μm cell strainer. Cells were seeded on a 100-mm plastic dish and cultured in a 5% CO2 incubator at 37 °C for 2 h to allow non-myocytes to adhere to the plate. The dish was swirled and media gently pipetted up and down to detach lightly attached cardiomyocytes. The collected myocytes were seeded in the same media described before; 48 h after plating, medium was exchanged to fresh DMEM (Gibco) with or without 2% FBS. All drug treatments were performed after this media change.
NRCMs were seeded evenly into the Seahorse XF96 cell culture plates (Agilent) and cultured in DMEM high glucose with 2% FBS. About 2 hours before the test, cells were moved to a non-CO2 incubator at 37 ° C and incubated for 1 hour. 1 hour prior to the test, culture media was replaced with the Seahorse Basal DMEM at 37°C (with appropriate concentration of glucose, 4mM L-glutamine, 1 mM sodium pyruvate and 1% penicillin-streptomycin solution) and incubated in a non-CO2 incubator at 37°C for 1 hour. Drugs were prepared at 8x to 10x concentrations with the corresponding seahorse media as in each well and added into ports of Seahorse XF96 cartridge plates which have been hydrated overnight. XFe96 Extracellular Flux Analyzer (Agilent) was used to measure oxygen consumption rate and extracellular acidification rate of cells with different drug treatments.

ER stress genes in NRCMs = assay: qRT-PCR of ER stress genes in NRCMs; format: cell-based, rat
Procedure: as §1, with “The collected myocytes were seeded in the same media described before; 48 h after plating, medium was exchanged to fresh DMEM (Gibco) with or without 2% FBS.” left out
RNA was isolated based on a standard protocol using TRIzol reagent (Vazyme). TRIzol (1ml per 1 well of a 6-well plate) was used to lyse cells and chloroform was added for RNA separation. Samples were shaked vigorously by hand for 15 seconds and incubated at room temperature for 2-3 minutes. RNA was present in the aqueous phase after centrifuge at 12000 x g for 15 minutes. Isopropyl alcohol was mixed to precipitate RNA from the aqueous phase. […] 1 μg total RNA was used for cDNA synthesis using a reverse transcription kit (Bioman). We then measured expression of genes of interest with SYBRR Green qPCR Mix (Bioman) using Applied Biosystems 7500 Quantitative PCR Instrument. Gene expression was normalized to the 18S ribosomal RNA expression and primers were listed in Primers Table.

[3] = tested on: Phospho-eIF2α, XBP1s, ATF6 (cleaved); assay: Western blot of ER stress effectors in NRCMs; format: cell-based, rat
Procedure: Cells were homogenized in the RIPA lysis buffer (Applygen) containing protease and phosphatase inhibitor cocktails (Bimake). The extract was spun at 12,000xg for 20min at 4°C. Total protein was measured by BCA (Thermofisher) and resolved by sodium dodecyl sulfate–polyacrylamide gel electrophoresis (SDS-PAGE). Proteins were blotted to polyvinylidene difluoride membranes (Amersham). Blots were blocked with non-fat milk (BBI Life Sciences) and incubated with antibodies against ATF6 (proteintech), phospho-eIF2α (ABclonol), XBP1 (ABclonol) and GAPDH (proteintech). Goat anti-rabbit IgG, goat anti-mouse IgG were incubated with the blots for 1 hour at room temperature. After 3 washes with 1xTBST (50 mM Tris-Cl, 150 mM NaCl, 0.1% Tween 20, pH 7.5), the blots were developed with the ECL Plus Kit (Absin). Relative protein expression was quantified by optical density and normalized to GAPDH.

NRCMs [4] = assay: ROS by H2DCFDA staining and flow cytometry; details: 3 h; 10 µM afatinib, 10 µM sorafenib, 5.62 µM ponatinib
Procedure: (§2) For ROS assessment, cells were washed with PBS once and stained with 10μM H2DCFHDA (MCE) in phenol red-free DMEM (Procell) in a humid incubator with 5% CO2 at 37°C for 30 minutes. Cells were washed with PBS twice and dissociated to single cells before flow cytometry analysis at the FITC channel. For lipid peroxidation measurement, cells were washed with PBS once and stained with 2μM C11-bodipy^581/591 (Cayman) in phenol red-free DMEM (Procell) in a humid incubator with 5% CO2 at 37°C for 30 minutes. Cells were washed with PBS twice and dissociated to single cells before flow cytometry analysis at both the FITC and the PE channels. Fluorescence of the oxidized C11-bodipy were acquired through the FITC channel (Ex/Em=488/520nm) and that of the non-oxidized C11-bodipy through the PE channel (Ex/Em=555/624nm).

NRCMs [5] = assay: Lipid peroxidation by C11-bodipy 581/591 and flow cytometry
Procedure: as §2

NRCMs [6] = assay: Calcium staining with Calbryte 520 AM; format: cell-based, rat; details: 0.5 and 1 h; 10 µM afatinib, 10 µM sorafenib, 5.62 µM ponatinib
[7] = in vivo; cited from earlier work
patients = details: ref Table S1, 2, 4, 26–36; cited from earlier work
Cor.4U hiPSC-CMs [8] = assay: 3'DGE-UMI RNAseq transcriptome of hiPSC-CMs; details: high PC1 loadings; ponatinib at high dose
[9] = Sprague-Dawley, rat, 24 h, 10 µM

Q: Which “EC50 on cells relative to Cmax in vivo” value (Cor.4U hiPSC-CMs [1]) does the source give for `CN(C)C/C=C/C(=O)Nc1cc2c(Nc3ccc(F)c(Cl)c3)ncnc2cc1O[C@H]1CCOC1` [afatinib] here?
A: ~ 60 folds

Q: And the “effect on ATP levels” value (Cor.4U hiPSC-CMs [1]; 0.32 to 10 µM, day 1 to day 5)?
A: dose-dependent and time-dependent reduction in ATP levels

Q: And the “dose-dependent toxicity (ATP fold changes)” value (Cor.4U hiPSC-CMs [1]; day 1, different doses, RNAseq conditions)?
A: dose-dependent toxicity

Q: And the “time-dependent toxicity (ATP fold changes)” value (Cor.4U hiPSC-CMs [1]; fixed dose over 5 days, RNAseq conditions)?
A: increasing toxicity with treatment duration

Q: What about the “effect on beat rate, contraction, base impedance and corrected field potential duration” value (HELP hiPSC-CMs) of the same molecule?
A: reduced beat rate and corrected field potential duration

Q: What about the “basal oxygen consumption rate (OCR)” value (NRCMs [2]) of the same molecule?
A: trend of inhibiting basal oxygen consumption rate (OCR)

Q: What about the “temporal activation of ER stress genes, 72 versus 24 h” value (ER stress genes in NRCMs; afatinib 5.62 µM, sorafenib 3.16 μM, ponatinib 1.78 μM) of the same molecule?
A: higher expression of Atf4, but a lower expression of Xbp1s and Atf6 at 72- than 24-h treatment

Q: What about the “relative activation of the three UPR branches” value (ER stress genes in NRCMs; high-dose treatment, 24 h) of the same molecule?
A: activated the ATF4 axis more robustly than the XBP1s and the ATF6 axes

Q: And the “duration of activated eIF2α phosphorylation” value [3]?
A: 12 h

Q: What about the “increase in percent of ROS-high cells” value (NRCMs [4]) of the same molecule?
A: 14.1%

Q: And the “change in percent of cells with high lipid peroxidation” value (NRCMs [5])?
A: increased slightly

Q: What about the “level of lipid peroxidation, TKI alone” value (NRCMs [5]; [9]) of the same molecule?
A: 92.5%

Q: What about the “level of lipid peroxidation, TKI with trolox” value (NRCMs [5]; [9]) of the same molecule?
A: 83%

Q: And the cytosolic calcium concentration (NRCMs [6])?
A: did not cause any significant changes in calcium concentration

Q: What about the Cmax [7] of the same molecule?
A: 50 nM

Q: And the “level of cardiotoxicity based on literature reports” value (patients)?
A: low cardiotoxicity

Q: And the “expression of genes associated with ER stress (ATF4, NUPR1, DDIT3, TRIB3, CHAC1, SESN2, HERPUD1)” value (Cor.4U hiPSC-CMs [8])?
A: upregulated

Q: What about the “expression of genes related to cardiomyopathy and sarcomeric structure (MYH7, SYNPO2L, LDB3, ACTN2, MYLK3)” value (Cor.4U hiPSC-CMs [8]) of the same molecule?
A: downregulated
